Key:
Chikungunya virus [1] = assay: Antiviral activity against CHIKV 122508 infected in […] BHK-21 cells assessed as reduction in viral titer at MOI of 1 measured after 24 hpi by viral plaque assay; format: functional, organism-based; settings: Chikungunya virus, 122508, BHK-21
[2] = Cytotoxicity against human HeLa CCL2 cells assessed as reduction in cell viability measured after 24 hrs by Alamar blue assay; format: functional
[3] = Selectivity index, ratio of CC50 for cytotoxicity against human HeLa CCL2 cells to EC50 for antiviral activity against CHIKV 122508 infected in human HeLa CCL2 cells; format: toxicity, cell-based; settings: read-out: Ratio CC50/EC50
Chikungunya virus [4] = assay: Antiviral activity against CHIKV 122508 infected in human HeLa CCL2 cells assessed as inhibition of viral replication at MOI of 1 at 80 uM incubated for 24 hpi by viral plaque assay; format: functional; design: unit not given here; settings: time 24 hrs
Chikungunya virus [5] = assay: Antiviral activity against CHIKV 122508 infected in human HeLa CCL2 cells assessed as inhibition of viral replication at MOI of 1 at 100 uM incubated for 24 hpi by viral plaque assay; format: functional; design: unit not given here; settings: time 24 hrs
Chikungunya virus [6] = assay: Antiviral activity against CHIKV 122508 infected in human HeLa CCL2 cells assessed as inhibition of viral replication at MOI of 1 at 10 uM incubated for 24 hpi by viral plaque assay; format: functional; design: unit not given here; settings: time 24 hrs

Which EC50 (Chikungunya virus [1]) does the source give for C=C1CC[C@H]2C(C)(C)CCC[C@]2(C)[C@H]1C/C=C1/C(=O)Nc2c(Cl)cc(F)cc21 here?
The EC50 was 0.08 µM.

And the CC50 [2]?
The CC50 was 134 µM.

And the selectivity ratio [3]?
The selectivity ratio was 1680.

And the Activity (Chikungunya virus [4])?
The Activity was 2.7.

What does the source list for C=C1CC[C@H]2C(C)(C)CCC[C@]2(C)[C@H]1C/C=C1\C(=O)Nc2c(Br)cccc21?
EC50 (Chikungunya virus [1]): 1.12 µM; CC50 [2]: > 100 µM; selectivity ratio [3]: > 90; Activity (Chikungunya virus [5]): 2.3

For CC1=CC[C@H]2C(C)(C)CCC[C@]2(C)[C@H]1C/C=C1/C(=O)Nc2c(Cl)cccc21, which EC50 (Chikungunya virus [1]) is on record?
The EC50 was 6.56 µM.

And the CC50 [2]?
The CC50 was greater than 100 µM.

And the selectivity ratio [3]?
Its selectivity ratio is 1.5.

Which CC50 [2] does the source give for C=C1CC[C@@H]2[C@](C)(CO)[C@H](O)CC[C@@]2(C)[C@@H]1C/C=C1\C(=O)N(C)c2ccccc21 here?
Its CC50 is greater than 100 µM.

With C=C1CC[C@H]2C(C)(C)CCC[C@]2(C)[C@H]1C/C=C1\C(=O)Nc2c(OC)cccc21 as the molecule, how does the Activity (Chikungunya virus [6]) read?
The Activity was 1.5.

And the EC50 (Chikungunya virus [1])?
Its EC50 is 0.03 µM.

And the CC50 [2]?
Its CC50 is 23.4 µM.

What about the selectivity ratio [3] of the same molecule?
Its selectivity ratio is 780.

What does the source list for C=C1CC[C@H]2C(C)(C)CCC[C@]2(C)[C@H]1C/C=C1\C(=O)Nc2cc(C)ccc21?
EC50 (Chikungunya virus [1]): 11.6 µM; CC50 [2]: 37.2 µM; selectivity ratio [3]: 3.2

For C=C1CC[C@H]2C(C)(C)CCC[C@]2(C)[C@H]1C/C=C1\C(=O)Nc2ccc(Br)cc21, which EC50 (Chikungunya virus [1]) is on record?
Its EC50 is 1.8 µM.

And the CC50 [2]?
Its CC50 is 20.6 µM.

What about the selectivity ratio [3] of the same molecule?
The selectivity ratio was 11.

What does the source list for C=C1CC[C@H]2C(C)(C)CCC[C@]2(C)[C@H]1C/C=C1\C(=O)NC(=O)c2ccccc21?
EC50 (Chikungunya virus [1]): 0.29 µM; CC50 [2]: > 100 µM; selectivity ratio [3]: > 347; Activity (Chikungunya virus [5]): 3.8

Which results are given for C=C1CC[C@H]2C(C)(C)CCC[C@]2(C)[C@H]1C/C=C1\C(=O)Nc2ccc(F)cc21?
EC50 (Chikungunya virus [1]): 6.62 µM; CC50 [2]: 15.7 µM; selectivity ratio [3]: 2.4

For C=C1CC[C@H]2C(C)(C)CCC[C@]2(C)[C@H]1C/C=C1/C(=O)Nc2ccc(C)cc21, which Activity (Chikungunya virus [6]) is on record?
Its Activity is 3.7.

What about the EC50 (Chikungunya virus [1]) of the same molecule?
Its EC50 is 0.02 µM.

What about the CC50 [2] of the same molecule?
Its CC50 is 15.2 µM.

And the selectivity ratio [3]?
The selectivity ratio was 758.

For C=C1[C@H](O)C[C@H]2C(C)(C)CCC[C@]2(C)[C@H]1C/C=C1/C(=O)Nc2ccccc21, which EC50 (Chikungunya virus [1]) is on record?
Its EC50 is 1.29 µM.

And the CC50 [2]?
Its CC50 is 15 µM.

And the selectivity ratio [3]?
The selectivity ratio was 12.

Which EC50 (Chikungunya virus [1]) does the source give for C=C1CC[C@@H]2[C@](C)(COC(C)=O)[C@H](OC(C)=O)CC[C@@]2(C)[C@@H]1C/C=C1/C(=O)Nc2ccccc21 here?
The EC50 was 7.4 µM.

And the CC50 [2]?
The CC50 was greater than 100 µM.

And the selectivity ratio [3]?
Its selectivity ratio is greater than 14.

For C=C1CC[C@H]2C(C)(C)CCC[C@]2(C)[C@H]1C/C=C1\C(=O)Nc2cccc(Br)c21, which EC50 (Chikungunya virus [1]) is on record?
Its EC50 is 0.44 µM.

What about the CC50 [2] of the same molecule?
Its CC50 is 27.1 µM.

What about the selectivity ratio [3] of the same molecule?
The selectivity ratio was 62.

Which results are given for C=C1CC[C@H]2C(C)(C)CCC[C@]2(C)[C@H]1C/C=C1\C(=O)Nc2cc(F)ccc21?
EC50 (Chikungunya virus [1]): 0.21 µM; CC50 [2]: 14.2 µM; selectivity ratio [3]: 67

Which results are given for C=C1CC[C@H]2C(C)(C)CCC[C@]2(C)[C@H]1C/C=C1\C(=O)Nc2cc(C(F)(F)F)ccc21?
EC50 (Chikungunya virus [1]): 3.07 µM; CC50 [2]: 52.8 µM; selectivity ratio [3]: 17

Which EC50 (Chikungunya virus [1]) does the source give for C=C1CC[C@H]2C(C)(C)CCC[C@]2(C)[C@H]1C/C=C1/C(=O)Nc2c(C)cccc21 here?
The EC50 was 0.62 µM.

And the CC50 [2]?
The CC50 was 142 µM.

And the selectivity ratio [3]?
Its selectivity ratio is 230.

And the Activity (Chikungunya virus [4])?
The Activity was 1.3.

For C=C1CC[C@H]2C(C)(C)CCC[C@]2(C)[C@H]1C/C=C1\C(=O)Nc2ccc(Cl)cc21, which EC50 (Chikungunya virus [1]) is on record?
The EC50 was 4.1 µM.

And the CC50 [2]?
Its CC50 is 18.3 µM.

What about the selectivity ratio [3] of the same molecule?
Its selectivity ratio is 4.5.

For C=C1CC[C@H]2C(C)(C)CCC[C@]2(C)[C@H]1C/C=C1/C(=O)Nc2c(OC)cccc21, which EC50 (Chikungunya virus [1]) is on record?
Its EC50 is 0.15 µM.

What about the CC50 [2] of the same molecule?
Its CC50 is 90.2 µM.

What about the selectivity ratio [3] of the same molecule?
Its selectivity ratio is 602.

What about the Activity (Chikungunya virus [4]) of the same molecule?
Its Activity is 2.6.

Which results are given for C=C1CC[C@H]2C(C)(C)CCC[C@]2(C)[C@H]1C/C=C1/C(=O)Nc2cc(F)ccc21?
EC50 (Chikungunya virus [1]): 0.46 µM; CC50 [2]: 9 µM; selectivity ratio [3]: 20

What does the source list for C=C1CC[C@H]2C(C)(C)CCC[C@]2(C)[C@H]1C/C=C1\C(=O)Nc2ccccc21?
EC50 (Chikungunya virus [1]): 7.23 µM; CC50 [2]: > 100 µM; selectivity ratio [3]: > 14

What does the source list for C=C1CC[C@H]2C(C)(C)CCC[C@]2(C)[C@H]1C/C=C1/C(=O)Nc2c(Br)cccc21?
EC50 (Chikungunya virus [1]): 1.27 µM; CC50 [2]: > 100 µM; selectivity ratio [3]: > 79

With C=C1CC[C@H]2C(C)(C)CCC[C@]2(C)[C@H]1C/C=C1\C(=O)Nc2cc(Br)ccc21 as the molecule, how does the EC50 (Chikungunya virus [1]) read?
Its EC50 is 7.5 µM.

What about the CC50 [2] of the same molecule?
The CC50 was 19.6 µM.

What about the selectivity ratio [3] of the same molecule?
Its selectivity ratio is 2.6.

Which EC50 (Chikungunya virus [1]) does the source give for C=C1CC[C@H]2C(C)(C)CCC[C@]2(C)[C@H]1C/C=C1\C(=O)Nc2cccc(Cl)c21 here?
The EC50 was 5.4 µM.

What about the CC50 [2] of the same molecule?
Its CC50 is 37.2 µM.

What about the selectivity ratio [3] of the same molecule?
Its selectivity ratio is 6.8.

With CC1=CC[C@H]2C(C)(C)CCC[C@]2(C)[C@H]1C/C=C1/C(=O)Nc2ccccc21 as the molecule, how does the EC50 (Chikungunya virus [1]) read?
Its EC50 is 3.22 µM.

What about the CC50 [2] of the same molecule?
Its CC50 is 18.6 µM.

What about the selectivity ratio [3] of the same molecule?
The selectivity ratio was 5.8.

For C=C1[C@H](O)C[C@H]2C(C)(C)CCC[C@]2(C)[C@H]1C/C=C1\C(=O)Nc2c(Cl)cccc21, which Activity (Chikungunya virus [6]) is on record?
The Activity was 2.1.

And the EC50 (Chikungunya virus [1])?
The EC50 was 0.002 µM.

What about the CC50 [2] of the same molecule?
The CC50 was 13.4 µM.

What about the selectivity ratio [3] of the same molecule?
Its selectivity ratio is 6700.

For C=C1CC[C@@H]2[C@](C)(CO)[C@H](O)CC[C@@]2(C)[C@@H]1C/C=C1\SC(=S)NC1=O, which CC50 [2] is on record?
Its CC50 is greater than 100 µM.

From ChEMBL document CHEMBL5131466, “Discovery and development of labdane-oxindole hybrids as small-molecule inhibitors against chikungunya virus infection” (Eur J Med Chem, 2022)
